# Test results: patent publication US20050261298A1, “Methods of treating conditions associated with an Edg-7 receptor” (priority 2002, published 2005)
# Key:
# Edg-4 = Edg-4 (Homo sapiens, UniProt Q9HBW0); assay: Calcium mobilization assay (FLIPR), inhibition of LPA-stimulated calcium increase; assay type: cell-based; details: HTC cells expressing Edg-4
# Histamine H1, Central = target: T1, Histamine H1, Central (Cavia porcellus, UniProt P31389); assay: Radioligand binding assay, 3H Pyrilamine; set-up: species or system Guinea pig; details: significance criteria ≧50% of max stimulation or inhibition
# T1 construct: Source: Guinea pig cerebellum; from tissue; host or cells: guinea pig cerebellum
# T1 sequence (P31389 whole entry): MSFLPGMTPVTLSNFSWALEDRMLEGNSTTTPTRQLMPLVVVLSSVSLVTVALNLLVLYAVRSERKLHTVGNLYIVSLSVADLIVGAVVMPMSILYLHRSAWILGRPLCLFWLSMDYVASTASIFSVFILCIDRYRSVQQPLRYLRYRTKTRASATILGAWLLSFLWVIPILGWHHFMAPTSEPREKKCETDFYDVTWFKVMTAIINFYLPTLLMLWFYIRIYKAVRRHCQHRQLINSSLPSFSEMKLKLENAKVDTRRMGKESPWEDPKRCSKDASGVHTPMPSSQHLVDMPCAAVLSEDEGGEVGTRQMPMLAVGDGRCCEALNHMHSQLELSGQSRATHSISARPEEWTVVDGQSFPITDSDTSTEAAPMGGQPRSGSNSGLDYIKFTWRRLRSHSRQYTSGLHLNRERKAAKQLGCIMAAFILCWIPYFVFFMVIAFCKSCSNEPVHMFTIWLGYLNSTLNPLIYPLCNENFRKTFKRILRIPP
# Procedure: (§1) In order to test the selectivity of compounds, various enzyme assays as well as radioligand binding assays were performed using numerous non-Edg receptor targets as listed below.
# (§2) A radioligand binding assay was performed using adrenergic α1 according to the method of Greengrass and Bremner 1979, Eur. J. Pharmacol. 55:323-326. A radioligand binding assay was performed using adrenergic α2 according to the method of Boyajian and Leslie, 1987, J. Pharmacol. Exp. Ther. 241:1092-1098. A radioligand binding assay was performed using adrenergic β according to the method of Feve et al., 1994, Proc. Natl. Acad. Sci. USA 91:5677-5681. A radioligand binding assay was performed using angiotensin AT2 according to the method of Whitebread et al., 1991, Biochem. Biophys. Res. Comm. 181:1365-1371. A radioligand binding assay was performed using calcium channel Type L, dihydropyridine according to the method of Ehlert et al., 1982, Life Sci. 30:2191-2202. A radioligand binding assay was performed using dopamine D2L according to the method of Bunzo et al., 1988, Nature 336:783-787. A radioligand binding assay was performed using endothelin ETA according to the method of Mihara et al., 1994, J. Pharmacol. Exp Ther. 268:1122-1127. A radioligand binding assay was performed using histamine H1 Central according to the method of Hill et al., 1978, J. Neurochem. 31:997-1004. […]
# Adrenergic β = assay: Radioligand binding assay, 3H Dihydroaplenolol; set-up: species or system Wistar rat; details: significance criteria ≧50% of max stimulation or inhibition
# Procedure: as §1, §2
# [1] = system: Adrenergic α1, Non-Selective; assay: Radioligand binding assay, 3H Prazosin; set-up: species or system Wistar Rat; details: significance criteria ≧50% of max stimulation or inhibition
# Procedure: as §1, §2
# Edg-6 = target: T2, Edg-6 (Homo sapiens, UniProt O95977); assay: Calcium mobilization assay (FLIPR), inhibition of S1P-stimulated calcium increase; assay type: cell-based; details: HTC cells expressing Edg-6
# T2 construct: expressed in transfected cells; host or cells: HTC rat hepatoma cells
# T2 sequence (O95977 1-384): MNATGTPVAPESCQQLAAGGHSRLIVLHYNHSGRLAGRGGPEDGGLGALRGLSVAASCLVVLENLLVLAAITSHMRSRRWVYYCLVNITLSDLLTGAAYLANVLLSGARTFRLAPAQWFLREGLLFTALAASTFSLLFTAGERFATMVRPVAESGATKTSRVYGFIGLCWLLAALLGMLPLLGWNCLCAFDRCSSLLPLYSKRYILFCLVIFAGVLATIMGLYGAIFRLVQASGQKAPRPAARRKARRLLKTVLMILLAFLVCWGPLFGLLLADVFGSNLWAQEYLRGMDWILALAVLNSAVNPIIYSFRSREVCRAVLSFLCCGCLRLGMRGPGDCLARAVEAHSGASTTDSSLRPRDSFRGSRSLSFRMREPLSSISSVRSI
# Adrenergic α2 = assay: Radioligand binding assay, 3H Rauwolscine; set-up: species or system Wistar rat; details: significance criteria ≧50% of max stimulation or inhibition
# Procedure: as §1, §2
# Dopamine D2L = target: T3, Dopamine D2L (Homo sapiens, UniProt P14416); assay: Radioligand binding assay, 3H Spiperone; details: significance criteria ≧50% of max stimulation or inhibition
# T3 construct: expressed in transfected cells; host or cells: CHO cells
# T3 sequence (P14416 whole entry): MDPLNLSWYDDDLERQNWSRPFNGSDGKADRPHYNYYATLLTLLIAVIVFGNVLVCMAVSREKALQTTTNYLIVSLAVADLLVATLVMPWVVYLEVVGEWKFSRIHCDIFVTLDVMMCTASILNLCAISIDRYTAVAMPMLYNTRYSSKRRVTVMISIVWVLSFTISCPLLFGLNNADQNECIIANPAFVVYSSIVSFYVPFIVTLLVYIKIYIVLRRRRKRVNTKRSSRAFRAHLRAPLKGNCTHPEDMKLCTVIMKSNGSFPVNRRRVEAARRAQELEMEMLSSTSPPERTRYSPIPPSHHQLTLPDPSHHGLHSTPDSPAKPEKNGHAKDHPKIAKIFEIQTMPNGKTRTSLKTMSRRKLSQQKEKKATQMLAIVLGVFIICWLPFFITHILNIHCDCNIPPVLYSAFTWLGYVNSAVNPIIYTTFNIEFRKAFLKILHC
# Procedure: as §1, §2
# Edg-2 = target: T4, Edg-2 (Homo sapiens, UniProt Q92633); assay: Calcium mobilization assay (FLIPR), inhibition of LPA-stimulated calcium increase; assay type: cell-based; details: HTC cells expressing Edg-2
# T4 construct: expressed in transfected cells; host or cells: HTC rat hepatoma cells
# T4 sequence (Q92633 whole entry): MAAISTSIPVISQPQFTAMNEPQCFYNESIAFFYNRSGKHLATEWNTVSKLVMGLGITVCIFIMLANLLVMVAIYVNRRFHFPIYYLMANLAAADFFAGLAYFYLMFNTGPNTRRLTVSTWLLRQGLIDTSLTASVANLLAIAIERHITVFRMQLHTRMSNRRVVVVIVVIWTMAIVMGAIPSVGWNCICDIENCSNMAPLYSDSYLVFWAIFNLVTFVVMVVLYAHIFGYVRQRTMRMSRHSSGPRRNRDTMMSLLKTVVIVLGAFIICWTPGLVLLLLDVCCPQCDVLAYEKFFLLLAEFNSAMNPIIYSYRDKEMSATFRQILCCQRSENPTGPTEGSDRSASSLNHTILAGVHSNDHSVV
# [2] = system: Calcium Channel Type L, Dihydropyridine; assay: Radioligand binding assay, 3H Nitrendipine; set-up: species or system Wistar Rat; details: significance criteria ≧50% of max stimulation or inhibition
# Procedure: as §1, §2
# human Edg 7 receptors = target: T5, human Edg 7 receptors (Homo sapiens, UniProt Q9UBY5); assay: Calcium mobilization assay (FLIPR), inhibition of LPA response; assay type: cell-based
# T5 construct: expressed in transfected cells
# T5 sequence (Q9UBY5 1-353): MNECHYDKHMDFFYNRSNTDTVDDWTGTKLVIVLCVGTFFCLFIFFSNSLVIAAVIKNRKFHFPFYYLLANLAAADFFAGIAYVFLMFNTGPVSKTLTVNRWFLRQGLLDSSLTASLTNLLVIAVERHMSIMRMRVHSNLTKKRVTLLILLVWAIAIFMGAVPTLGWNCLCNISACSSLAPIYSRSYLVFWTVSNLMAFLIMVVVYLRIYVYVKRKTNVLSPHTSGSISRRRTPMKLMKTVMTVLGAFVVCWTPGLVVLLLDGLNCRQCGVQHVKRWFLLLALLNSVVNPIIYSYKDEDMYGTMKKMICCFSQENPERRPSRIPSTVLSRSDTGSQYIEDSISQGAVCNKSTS
# Procedure: The compounds were tested in HTC cells expressing human Edg 7 receptors. […] The compounds are tested in this recombinant system first, and subsequently tested in cell lines expressing Edg-7 (in addition to other Edg receptors).
# The radioligand binding assays were conducted as described in Section 6.15 (Example 15).
# LPA receptors such as Edg-7, couple to calcium effector pathways, and result in increases in intracellular calcium following receptor activation (An, 1998, J. Cell. Biochem Supp. 30-31:147-157). This biological response lends itself to a very efficient, high-throughput screen using a Fluorescence Imaging Plate Reader (FLIPR; Molecular Devices, Sunnyvale, Calif.). The FLIPR system is a real-time, cell-based assay system with continuous fluorescence detection using a cooled CCD camera. The FLIPR system was used to developing an Edg-7 receptor screen. Rat hepatoma cells stably expressing Edg-7 receptor were plated on 384-well plates and loaded with a calcium dye loading kit (Molecular Devices, Sunnyvale, Calif.) for 1 hour at room temperature. Cells were then placed on the FLIPR^384 (Molecular Devices, Sunnyvale, Calif.) and excited by an argon laser at […]. The data for the entire 384-well plate was updated every second. An integrated robotic pipettor allowed for simultaneous compound addition into each individual well in the plate
# [3] = system: Muscarinic Non-Selective, Central; assay: Radioligand binding assay, 3H Quinuclidinyl benzilate; set-up: species or system Wistar rat; details: significance criteria ≧50% of max stimulation or inhibition
# Procedure: as §1, §2
# [4] = concentrations as high as 20 µM
# Edg-4, sequence (Q9HBW0 1-344 limits assumed): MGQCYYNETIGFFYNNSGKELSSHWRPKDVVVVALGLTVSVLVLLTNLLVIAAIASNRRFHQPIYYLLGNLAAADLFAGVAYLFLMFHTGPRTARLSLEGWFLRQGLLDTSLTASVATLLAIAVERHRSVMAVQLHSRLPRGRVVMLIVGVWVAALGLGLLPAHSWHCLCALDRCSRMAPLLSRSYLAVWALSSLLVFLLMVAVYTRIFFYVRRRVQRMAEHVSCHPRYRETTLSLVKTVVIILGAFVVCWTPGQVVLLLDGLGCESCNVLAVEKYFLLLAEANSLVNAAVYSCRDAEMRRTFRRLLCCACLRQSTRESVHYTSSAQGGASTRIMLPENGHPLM
structure (smiles),measurement,setting,value
CCOC(=O)c1c(NC(=O)NS(=O)(=O)c2ccccc2Cl)sc2c1CCCC2 [Compound 101],IC50,Edg-4,> 20 µM
same,"inhibition of LPA-stimulated calcium increases, Edg-4",Edg-4; [4],did not inhibit
same,"activity in radioligand binding assay, H1 central","Histamine H1, Central",no significant activity
same,"activity in radioligand binding assay, Adrenergic Beta, non-selective",Adrenergic β,no significant activity
same,"activity in radioligand binding assay, Adrenergic Alpha 1, non-selective",[1],no significant activity
same,IC50,Edg-6,> 20 µM
same,"inhibition of S1P-stimulated calcium increases, Edg-6",Edg-6; [4],did not inhibit
same,"activity in radioligand binding assay, Adrenergic Alpha 2, non-selective",Adrenergic α2,no significant activity
same,"activity in radioligand binding assay, Dopamine D2L",Dopamine D2L,no significant activity
same,IC50,Edg-2,> 20 µM
same,"inhibition of LPA-stimulated calcium increases, Edg-2",Edg-2; [4],did not inhibit
same,"activity in radioligand binding assay, Calcium Channels Type L, DHP",[2],no significant activity
same,"selective inhibition of the Edg-7 receptor (FIG. 1, FIG. 2)",human Edg 7 receptors; HTC cells expressing Edg-7,specifically inhibit
same,IC50,human Edg 7 receptors; HTC cells expressing human Edg 7,1.59 µM
same,Fold Selectivity,human Edg 7 receptors; inhibitory selectivity for Edg-7 relative to other Edg receptors,>12.6 Fold
same,"activity in radioligand binding assay, Muscarinic, non-selective, central",[3],no significant activity
